This is an account of results in PMC6801819, “Exogenous Iron Increases Fasciocidal Activity and Hepatocellular Toxicity of the Synthetic Endoperoxides OZ78 and MT04” (International Journal of Molecular Sciences, 2019).

One data set concerns HepG2 cells. The experiment in a line: Cellular ATP content (CellTiter-Glo). It counts as cell-based, human. The note with it: 24 h, HepG2. How it is done: Stock solutions of the drugs tested were prepared in DMSO 100% (v/v).
In viability assays, HepG2 cells were treated with 0.1% Triton-X or 0.1% DMSO for positive or negative control, respectively.
To assess cellular ATP content, HepG2 cells were seeded in white-wall 96-well plates with a clear bottom (Nunc). One day after seeding, cells were treated with the respective drugs. […] Luminescence was measured using Tecan M200 Infinite Pro.

Data set [1] relates to complex II of the mitochondrial electron transport chain. The experiment in a line: High-resolution respirometry, succinate + rotenone (complex II). The note with it: AS 100 µM, OZ78 500 µM, MT04 500 µM, 24 h, permeabilized HepG2, vs control. It counts as cell-based, human. How it is done:
After incubation with different drugs for 24 h, HepG2 cells were trypsinized and resuspended in DMEM with 10% fetal calf serum (FCS) and then centrifuged for 5 min (180× g). Cells were resuspended in MiRo5 respiration buffer (110 mM sucrose, 0.5 mM ethylene glycol-bis(β-aminoethyl ether)-N,N,N′,N′-tetraacetic acid (EGTA), 3.0 mM MgCl2, 80 mM KCl, 60 mM K-lactobionate, 10 mM KH2PO4, 20 mM taurine, 20 mM Hepes, 1.0 g/L BSA, pH 7.1). Respiration rates were measured at 37 °C using a high-resolution oxygraph (Oxygraph-2k, Oroboros Instruments, Innsbruck, Austria). Respiration rates were calculated as the time derivative of oxygen concentration measured in the closed respirometer. The amplified signal was recorded in a computer with an online display of the calibrated oxygen concentration and oxygen flux (DatLab software for data acquisition and analysis; Oroboros Instruments). The mitochondrial complex activity was assessed by a standard titration protocol: first cells were permeabilized with digitonin (10 µg/1 million cells) for 5 min. Afterward, for complex I-dependent maximal respiration stimulation, substrates added were glutamate (10 mM) and malate (5 mM), which provide nicotinamide adenine dinucleotide (NADH) to the respiratory chain (complex I activation), followed by addition of ADP (2.5 mM) (state 3, maximal respiration). After a stable signal was reached and marked, rotenone (0.5 µM) was added to inhibit complex I, and then complex II-dependent respiration was stimulated by adding succinate (10 mM), which provides flavin adenine dinucleotide (FADH) to the respiratory chain (complex II activation, state 3). Afterward, complex III was inhibited by antimycin A (2.5 µM), and complex IV-dependent respiration was measured by adding ascorbate (2 mM) and N,N,N′,N′-tetramethyl-p-phenylendiamine (TMPD, 0.5 mM). We confirmed the integrity of the outer mitochondrial membrane by showing the absence of a stimulatory effect of exogenous cytochrome c (10 µM) on respiration. Respiration was expressed as oxygen consumption per 5 × 10^5 cells.

In another data set the test system is adult F. hepatica. The experiment in a line: In vitro/ex vivo adult worm viability assay. It counts as cell-based, Fasciola hepatica. The note with it: for viability of adult F. hepatica (viability score): score 4 normal activity to 1 death; for viability of adult F. hepatica: 48 h. How it is done: The experiments were performed, as described previously. Adult F. hepatica were collected from bovine liver bile ducts obtained from the local slaughterhouse (Basel, Switzerland). After careful washing, a single adult worm was placed per well (6-well plate, Costar, MA, USA) containing 5.4 mL RPMI 1640 (Gibco, N.Y., USA), supplemented with 1% (v/v) antibiotics (50 µg/mL streptomycin and 50 U/mL penicillin), 1% (v/v) drug solution, […] Control worms were incubated in 1% (v/v) DMSO combined with iron or hemin. Experiments were conducted in triplicates and repeated once. Cultures were kept at 37 °C in an atmosphere of 5% CO2. The viabilities of treated and untreated worms were monitored at 0, 24, 48, and 72 h. Worms were examined by eye and/or using a dissecting microscope (20× lenses). The viability of adult flukes was scored using the following scale: 4: normal activity; movements were visible without a microscope, 3: reduced activities, 2: very weak activities detected only using microscopic magnification, and 1: death of worm (no movement observed for two min using a microscope).

The test system of data set [2] is F. hepatica. The note with it: rats infected with F. hepatica, single oral dose AS 200 mg/kg, OZ78 100 mg/kg, MT04 50 mg/kg; cited from earlier work.
A further data set concerns human liver microsomes. The experiment in a line: Metabolism in the presence of human liver microsomes. Format: in vitro ADME. The note with it: 10 µM, 2 hours; for parent substance metabolized: functional human liver microsomes, 37 °C. How it is done: The metabolism of AS, MT04, and OZ78 was tested in the presence of human liver microsomes or heat-inactivated microsomes (70 °C for 20 min, referred to as control microsomes) at 37 °C. AS, MT04 or OZ78 (10 µM each) were added to 1.0 mL of reaction mixture consisting of microsomes ([…]), an NADPH regenerating system, and PBS buffer, pH 7.4. Adding the drugs started the reaction. Aliquots of 100 µL were transferred into Eppendorf tubes after 0, 15, 30, 60, 120 min. The reaction was stopped by adding 300 µL methanol. The samples were then vortexed and centrifuged at 3000 g for 30 min. Supernatants were taken for LC-MS analysis.
LC-MS/MS measurements for AS were performed as described recently. Briefly, sample measurements were done with a high-performance liquid chromatography (HPLC) system (Shimadzu, Kyoto, Japan) connected to an API 365 triple-quadrupole mass spectrometer (PE Biosystems, Foster City, CA, USA) with a turbo ion spray interface. AS was detected in positive ionization mode by selected reaction monitoring (SRM) with a transition of 267.4→163.0. For analyte separation, a reversed phase column was used (2.1 × 10 mm guard cartridge (3 μm) connected to a 2.1 × 20 mm Atlantis T3 3 μm analytical column (Waters, Milford, MA, USA)). A gradient was used (mobile phase A: 5 mM ammonium formiate plus 0.15% (v/v) formic acid in ultra-pure water, mobile phase B: 0.15% (v/v) formic acid in acetonitrile) at a flow rate of 0.3 mL/min.
The analysis of MT04 and OZ78 [42] was conducted using the same system as described for AS. A phenomenex C8 (50mm × 2.00mm, 5µm, Brechbühler AG, Schlieren, Switzerland) was used for chromatographic separation with a gradient (mobile A: 5 mM ammonium formiate in water and mobile B: acetonitrile) at a flow rate of 0.3 mL/min. MS was conducted in negative ionization mode. For OZ78 and MT04 a mass of 321.4 and 337.4, respectively, was detected.

Data set [3] deals with F. hepatica. The note with it: sheep naturally infected with F. hepatica; cited from earlier work.
[4] abbreviates: 50 µg/mL drug + Fe2+ (iron), 72 h.
Where [5] appears, read: 50 µg/mL drug + Fe2+ (iron), 24 h.

In the case of `C[C@H]1[C@H](OC(=O)CCC(=O)O)O[C@@H]2O[C@@]3(C)CC[C@H]4[C@H](C)CC[C@@H]1[C@@]24OO3` [AS, artesunate, reference compound], the “decrease in cellular ATP content as compared to DMSO” value (from here on “decrease in cellular ATP content”) in the data set with HepG2 cells (100 µM + Fe2+ (iron)) is on record as 93%; with HepG2 cells (100 µM + hemin), 95%; with HepG2 cells (100 µM alone), 55%; in the data set with HepG2 cells (500 µM + Fe2+ (iron)), “complete depletion in cellular ATP”; in the data set on HepG2 cells (500 µM + hemin) it was “complete depletion in cellular ATP”; in the data set with HepG2 cells (500 µM alone), “complete depletion in cellular ATP”. In addition, the “inhibition of mitochondrial respiration, succinate + rotenone (complex II)” value (“inhibition of mitochondrial respiration” for short) in data set [1] was 83%. Besides, the “viability of adult F. hepatica (viability score)” value (from here on “viability … (viability score)”) in the data set with adult F. hepatica (setting [4]) is recorded as “death of the worms”; in the data set with adult F. hepatica (50 µg/mL drug + hemin, 72 h) it was “death of the worms”; with adult F. hepatica (50 µg/mL drug alone, 72 h), “death of the worms”. For the same compound, in the data set with F. hepatica [2], the “killing of juvenile and adult liver flukes in vivo” value (“killing” below) was “efficiently killed juvenile and adult liver flukes”. In the data set on human liver microsomes, the parent substance metabolized turned out to be 94%. Further, the “degradation of parent substance” value in the data set with human liver microsomes (heat-inactivated microsomes) is recorded as “no degradation was detected”.

`O=C(O)CC1CCC2(CC1)OOC1(OO2)C2CC3CC(C2)CC1C3` (stereo not drawn) [MT04]: the “decrease in cellular ATP content” value is recorded as 20% in the data set on HepG2 cells (100 µM + Fe2+ (iron)); 40% in the data set on HepG2 cells (100 µM + hemin); “not toxic” in the data set on HepG2 cells (100 µM alone); 65% in the data set on HepG2 cells (500 µM + Fe2+ (iron)); 65% in the data set on HepG2 cells (500 µM + hemin); 20% in the data set with HepG2 cells (500 µM alone). Moreover, the egg count reduction in the data set on F. hepatica [3] is on record as 98.5%. In addition, the worm burden reduction in the data set with F. hepatica [3] is listed as 92%. For the same compound, in data set [1], the “inhibition of mitochondrial respiration” value turned out to be 61%. Also, the “viability … (viability score)” value in the data set on adult F. hepatica (setting [5]) is on record as 2.2; with adult F. hepatica (setting [4]), 1.6; in the data set with adult F. hepatica (50 µg/mL drug + hemin, 24 h), 2.5; with adult F. hepatica (50 µg/mL drug + hemin, 72 h), “death of the worms”; in the data set on adult F. hepatica (50 µg/mL drug alone, 24 h), “not affected”; in the data set with adult F. hepatica (50 µg/mL drug alone, 72 h), 1.6. Further, in the data set on F. hepatica [2], the “killing” value is “efficiently killed juvenile and adult liver flukes”. Besides, in the data set with human liver microsomes, the parent substance metabolized entry was “did not show a decrease”.

Turning to `O=C(O)C[C@H]1CC[C@]2(CC1)OOC1(O2)C2CC3CC(C2)CC1C3` (stereo partly drawn) [OZ78], the “decrease in cellular ATP content” value with HepG2 cells (100 µM + Fe2+ (iron)) is reported as “not toxic”; in the data set with HepG2 cells (100 µM + hemin), 12%; in the data set on HepG2 cells (100 µM alone) it was “not toxic”; with HepG2 cells (500 µM + Fe2+ (iron)), “not enhanced by the addition of iron or hemin”; in the data set with HepG2 cells (500 µM + hemin), “not enhanced by the addition of iron or hemin”; in the data set with HepG2 cells (500 µM alone), 14%. Moreover, in the data set with F. hepatica [3], the effect in sheep result was “no effect”. In addition, the “inhibition of mitochondrial respiration” value in data set [1] is “only numerically, but without reaching statistical significance”. Also, the “viability … (viability score)” value with adult F. hepatica (setting [5]) was 3; in the data set with adult F. hepatica (setting [4]) it was 2; in the data set on adult F. hepatica (50 µg/mL drug + hemin, 24 h), 3; in the data set with adult F. hepatica (50 µg/mL drug + hemin, 72 h), 2; with adult F. hepatica (50 µg/mL drug alone, 24 h), “no effect on worm vitality”; with adult F. hepatica (50 µg/mL drug alone, 72 h) it was 2. The “viability of adult F. hepatica” value with adult F. hepatica (50 µg/mL drug + Fe2+ (iron)) and in the data set with adult F. hepatica (50 µg/mL drug + hemin) was “more efficient in impairing worm viability than OZ78 alone” each time. Moreover, the “killing” value in the data set with F. hepatica [2] was “efficiently killed juvenile and adult liver flukes”. Besides, in the data set with human liver microsomes, the parent substance metabolized entry is “did not show a decrease”.
